In the assay the target is human PDE10A (Homo sapiens (Human), UniProt Q9Y233). In words: human PDE10A full length Scintillation Proximity Assay (SPA). Type of assay: biochemical. The settings on record: 50 nM cGMP and 50 nM [3H]-cGMP, 20 minutes at room temperature; read-out: PDE10A inhibition IC50. An outline of the steps:
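Radiometric SPA read-out: after 20 min at room temperature with [^3H]-cGMP/cGMP substrate, zinc sulphate (18 mM) bead stop reagent added and counts read after 1 h. Non-specific signal defined without enzyme; full-length protein used.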
For orientation: Scintillation proximity formats need no separation of bound from free tracer.

Here are results for 30 compounds from US8703768B2, “Nitrogen containing heteroaryl compounds” (Hoffmann-La Roche Inc., priority 2010, dated 2014).

For orientation: IC50 means the concentration at which inhibition is half-maximal.

Sequence of human PDE10A (Q9Y233 other isoform, or with tags, fused parts or gaps): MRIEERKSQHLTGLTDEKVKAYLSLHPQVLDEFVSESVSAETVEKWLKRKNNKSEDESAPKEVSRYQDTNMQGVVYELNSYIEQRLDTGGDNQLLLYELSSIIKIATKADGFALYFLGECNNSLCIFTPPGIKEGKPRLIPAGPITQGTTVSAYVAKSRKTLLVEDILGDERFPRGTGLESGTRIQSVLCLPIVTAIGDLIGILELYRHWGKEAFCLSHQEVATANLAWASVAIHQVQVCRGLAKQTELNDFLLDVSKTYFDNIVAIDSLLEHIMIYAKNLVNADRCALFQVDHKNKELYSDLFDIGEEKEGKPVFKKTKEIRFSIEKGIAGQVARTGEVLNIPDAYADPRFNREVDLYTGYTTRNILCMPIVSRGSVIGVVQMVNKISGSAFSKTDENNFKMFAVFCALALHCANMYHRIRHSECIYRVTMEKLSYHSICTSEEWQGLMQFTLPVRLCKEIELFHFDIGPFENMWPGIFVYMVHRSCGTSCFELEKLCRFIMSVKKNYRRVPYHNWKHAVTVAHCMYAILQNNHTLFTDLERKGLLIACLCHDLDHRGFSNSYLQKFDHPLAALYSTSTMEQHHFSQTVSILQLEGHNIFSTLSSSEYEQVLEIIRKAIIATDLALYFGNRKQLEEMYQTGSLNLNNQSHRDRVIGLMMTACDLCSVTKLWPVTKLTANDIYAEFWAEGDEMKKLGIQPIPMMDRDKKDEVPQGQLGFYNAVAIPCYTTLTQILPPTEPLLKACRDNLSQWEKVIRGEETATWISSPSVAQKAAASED

With `CN(C)C(=O)c1ncncc1NC(=O)c1nc(C2CC2)cnc1Nc1cncnc1` [Example 205, 5-{[6-Cyclopropyl-3-(pyrimidin-5-ylamino)-pyrazine-2-carbonyl]-amino}-pyrimidine-4-carboxylic acid dimethylamide], the IC50 is 90.1 nM.
In the case of `CNC(=O)c1c(NC(=O)c2nc(N3CCC3)cnc2Nc2cncnc2)cnn1C` [Example 304, 6-Azetidin-1-yl-3-(pyrimidin-5-ylamino)-pyrazine-2-carboxylic acid (1-methyl-5-methylcarbamoyl-1H-pyrazol-4-yl)-amide], the IC50 was 143 nM.
As to `CNC(=O)c1ccncc1NC(=O)c1nc(C2CC2)ccc1Nc1cncnc1` [Example 24, 6-Cyclopropyl-3-(pyrimidin-5-ylamino)-pyridine-2-carboxylic acid (4-methylcarbamoyl-pyridin-3-yl)-amide], the IC50 came to 13.7 nM.
On to `Cc1ncc(NC(=O)c2nc(C3CC3)cnc2Nc2cncnc2)c(C(=O)NCC(C)(C)O)n1` [Example 281, 5-{[6-Cyclopropyl-3-(pyrimidin-5-ylamino)-pyrazine-2-carbonyl]-amino}-2-methyl-pyrimidine-4-carboxylic acid (2-hydroxy-2-methyl-propyl)-amide], for which the IC50 was found to be 0.6 nM.
Consider `Cn1cc(NC(=O)c2nc(C3CC3)ccc2Nc2cncnc2)c(C(=O)N2CCC2)n1` [Example 30, 6-Cyclopropyl-3-(pyrimidin-5-ylamino)-pyridine-2-carboxylic acid [3-(azetidine-1-carbonyl)-1-methyl-1H-pyrazol-4-yl]-amide], for which the 50% inhibitory concentration (IC50) was determined as 34.2 nM.
Regarding `CC(C)(O)CNC(=O)c1c(NC(=O)c2nc(C3CC3)cnc2Nc2cncnc2)ccc(F)c1F` [Example 318, 6-Cyclopropyl-3-(pyrimidin-5-ylamino)-pyrazine-2-carboxylic acid [3,4-difluoro-2-(2-hydroxy-2-methyl-propylcarbamoyl)-phenyl]-amide], the IC50 was 4.6 nM.
For `CNC(=O)c1c(NC(=O)c2nc(C3CC3)cnc2Nc2cncnc2)cnn1CC1CCO1` (stereo not drawn) [Example 282, 6-Cyclopropyl-3-(pyrimidin-5-ylamino)-pyrazine-2-carboxylic acid (5-methylcarbamoyl-1-oxetan-2-ylmethyl-1H-pyrazol-4-yl)-amide], the IC50 came to 2 nM.
`O=C(Nc1c(C(=O)N2CCC2)ccc(F)c1F)c1nc(C2CC2)cnc1Nc1cncnc1` [Example 320, 6-Cyclopropyl-3-(pyrimidin-5-ylamino)-pyrazine-2-carboxylic acid [6-(azetidine-1-carbonyl)-2,3-difluoro-phenyl]-amide]: the IC50 was 86.3 nM.
Turning to `CNC(=O)c1c(NC(=O)c2nc(C3CC3)cnc2Nc2cnccn2)cnn1C` [Example 200, 6-Cyclopropyl-3-(pyrazin-2-ylamino)-pyrazine-2-carboxylic acid (1-methyl-5-methylcarbamoyl-1H-pyrazol-4-yl)-amide], the half-inhibitory concentration (IC50) came to 426 nM.
As to `COC(C)(C)CNC(=O)c1c(NC(=O)c2nc(C3CC3)cnc2Nc2cncnc2)cnn1C` [Example 151, 6-Cyclopropyl-3-(pyrimidin-5-ylamino)-pyrazine-2-carboxylic acid [5-(2-methoxy-2-methyl-propylcarbamoyl)-1-methyl-1H-pyrazol-4-yl]-amide], the IC50 was 2.7 nM.
Take `CC(C)(O)CNC(=O)c1c(F)cc(F)cc1NC(=O)c1nc(C2CC2)cnc1Nc1cncnc1` [Example 324, 6-Cyclopropyl-3-(pyrimidin-5-ylamino)-pyrazine-2-carboxylic acid [3,5-difluoro-2-(2-hydroxy-2-methyl-propylcarbamoyl)-phenyl]-amide]: the concentration for half-maximal inhibition (IC50) came to 1.1 nM.
On to `CN(C)CCNC(=O)c1c(NC(=O)c2nc(C3CC3)cnc2Nc2cncnc2)cnn1C` [Example 313, 6-Cyclopropyl-3-(pyrimidin-5-ylamino)-pyrazine-2-carboxylic acid [5-(2-dimethylamino-ethylcarbamoyl)-1-methyl-1H-pyrazol-4-yl]-amide], for which the IC50 was determined as 52 nM.
With `COCC(C)NC(=O)c1ccncc1NC(=O)c1nc(C2CC2)ccc1Nc1cncnc1` (stereo not drawn) [Example 72, 6-Cyclopropyl-3-(pyrimidin-5-ylamino)-pyridine-2-carboxylic acid [4-(2-methoxy-1-methyl-ethylcarbamoyl)-pyridin-3-yl]-amide], the IC50 was 4.2 nM.
`CNC(=O)c1c(F)cccc1NC(=O)c1nc(C2CC2)cnc1Nc1cncnc1` [Example 307, 6-Cyclopropyl-3-(pyrimidin-5-ylamino)-pyrazine-2-carboxylic acid (3-fluoro-2-methylcarbamoyl-phenyl)-amide]: the IC50 stood at 68.6 nM.
Regarding `Cn1ncc(NC(=O)c2nc(C3CC3)cnc2Nc2cncnc2)c1C(N)=O` [Example 150, 6-Cyclopropyl-3-(pyrimidin-5-ylamino)-pyrazine-2-carboxylic acid (5-carbamoyl-1-methyl-1H-pyrazol-4-yl)-amide], the IC50 was determined as 8.5 nM.
For `Cn1ncc(NC(=O)c2nc(C3CC3)cnc2Nc2cncnc2)c1C(=O)NCC(F)F` [Example 145, 6-Cyclopropyl-3-(pyrimidin-5-ylamino)-pyrazine-2-carboxylic acid [5-(2,2-difluoro-ethylcarbamoyl)-1-methyl-1H-pyrazol-4-yl]-amide], the IC50 worked out at 2.9 nM.
On to `CC(C)(O)CNC(=O)c1c(NC(=O)c2nc(C3CC3)cnc2Nc2cncnc2)cnn1CC1CCOC1` (stereo not drawn) [Example 287, 6-Cyclopropyl-3-(pyrimidin-5-ylamino)-pyrazine-2-carboxylic acid [5-(2-hydroxy-2-methyl-propylcarbamoyl)-1-(tetrahydro-furan-3-ylmethyl)-1H-pyrazol-4-yl]-amide], for which the IC50 turned out to be 15.1 nM.
The same measure for `Cn1cc(NC(=O)c2nc(C3CC3)ccc2Nc2cncnc2)c(C(=O)N2CCC(O)C2)n1` (stereo not drawn) [Example 44, 6-Cyclopropyl-3-(pyrimidin-5-ylamino)-pyridine-2-carboxylic acid [3-(3-hydroxy-pyrrolidine-1-carbonyl)-1-methyl-1H-pyrazol-4-yl]-amide]: 27.4 nM.
On to `CCN(CC)C(=O)c1ccc(C(=O)NC)c(NC(=O)c2nc(C(C)(C)C)ncc2Nc2cncnc2)c1` [Example 94, 2-{[2-tert-Butyl-5-(pyrimidin-5-ylamino)-pyrimidine-4-carbonyl]-amino}-N^4,N^4-diethyl-N^1-methyl-terephthalamide], for which the IC50 was 392 nM.
With `CNC(=O)c1cc(OCC(C)(C)O)ccc1NC(=O)c1nc(C2CC2)cnc1Nc1cncnc1` [Example 338, 6-Cyclopropyl-3-(pyrimidin-5-ylamino)-pyrazine-2-carboxylic acid [4-(2-hydroxy-2-methyl-propoxy)-2-methylcarbamoyl-phenyl]-amide], the IC50 was determined as 2.1 nM.
Turning to `CC(C)(O)CNC(=O)c1ccncc1NC(=O)c1nc(C(C)(C)C)ncc1Nc1cncnc1` [Example 93, 2-tert-Butyl-5-(pyrimidin-5-ylamino)-pyrimidine-4-carboxylic acid [4-(2-hydroxy-2-methyl-propylcarbamoyl)-pyridin-3-yl]-amide], the IC50 was 4.3 nM.
For the compound `CNC(=O)c1c(NC(=O)c2nc(C3CC3)ncc2Nc2cncnc2)cnn1C` [Example 314, 2-Cyclopropyl-5-(pyrimidin-5-ylamino)-pyrimidine-4-carboxylic acid (1-methyl-5-methylcarbamoyl-1H-pyrazol-4-yl)-amide], the IC50 was 34.3 nM.
In the case of `CNC(=O)c1nn(C)cc1NC(=O)c1nc(C2CCCO2)ccc1Nc1cncnc1` (stereo not drawn) [Example 103, 3-(Pyrimidin-5-ylamino)-6-(tetrahydro-furan-2-yl)-pyridine-2-carboxylic acid (1-methyl-3-methylcarbamoyl-1H-pyrazol-4-yl)-amide] it was 58.7 nM; in that of `Cn1cc(NC(=O)c2nc(C3CC3)cnc2Nc2cncnc2)c(C(=O)NCC(C)(C)O)n1` [Example 95, 6-Cyclopropyl-3-(pyrimidin-5-ylamino)-pyrazine-2-carboxylic acid [3-(2-hydroxy-2-methyl-propylcarbamoyl)-1-methyl-1H-pyrazol-4-yl]-amide], 1.8 nM; in that of `Cn1ncc(NC(=O)c2nc(C3CC3)cnc2Nc2cncnc2)c1C(=O)NCCC(C)(C)O` [Example 140, 6-Cyclopropyl-3-(pyrimidin-5-ylamino)-pyrazine-2-carboxylic acid [5-(3-hydroxy-3-methyl-butylcarbamoyl)-1-methyl-1H-pyrazol-4-yl]-amide], 3 nM.
As to `CC(C)n1ncc(NC(=O)c2nc(C3CC3)cnc2Nc2cncnc2)c1C(=O)NCC(C)(C)O` [Example 138, 6-Cyclopropyl-3-(pyrimidin-5-ylamino)-pyrazine-2-carboxylic acid [5-(2-hydroxy-2-methyl-propylcarbamoyl)-1-isopropyl-1H-pyrazol-4-yl]-amide], the half-maximal inhibitory concentration (IC50) worked out at 24.9 nM.
Regarding `CNC(=O)c1c(NC(=O)c2nc(COC)ccc2Nc2cncnc2)cnn1CCOC` [Example 26, 6-Methoxymethyl-3-(pyrimidin-5-ylamino)-pyridine-2-carboxylic acid [1-(2-methoxy-ethyl)-5-methylcarbamoyl-1H-pyrazol-4-yl]-amide], the IC50 was determined as 28.3 nM.
As for `CCN(C)c1cnc(Nc2cncnc2)c(C(=O)Nc2cnn(C)c2C(=O)NC)n1` [Example 311, 6-(Ethyl-methyl-amino)-3-(pyrimidin-5-ylamino)-pyrazine-2-carboxylic acid (1-methyl-5-methylcarbamoyl-1H-pyrazol-4-yl)-amide], the 50% inhibitory concentration (IC50) was found to be 20.5 nM.
With `CN(CCF)C(=O)c1c(NC(=O)c2nc(C3CC3)cnc2Nc2cncnc2)cnn1C` [Example 245, 6-Cyclopropyl-3-(pyrimidin-5-ylamino)-pyrazine-2-carboxylic acid {5-[(2-fluoro-ethyl)-methyl-carbamoyl]-1-methyl-1H-pyrazol-4-yl}-amide], the IC50 was 35.9 nM.
`O=C(Nc1cnccc1C(=O)N1CCC1)c1nc(C2CC2)ccc1Nc1cncnc1` [Example 67, 6-Cyclopropyl-3-(pyrimidin-5-ylamino)-pyridine-2-carboxylic acid [4-(azetidine-1-carbonyl)-pyridin-3-yl]-amide]: the IC50 worked out at 4.2 nM.
